Experimental data reported in patent publication US7592457B2 (Korea Research Institute of Chemical Technology, priority 2004, dated 2009).
pIC50: −log10 of the molar value. Where two headings read alike, the source gives them in different places.

Assays:
5-HT2a = target: T1, 5-HT2a (Homo sapiens, UniProt P28223); assay: Radioligand binding, 5-HT2a ([3H]Ketanserin); settings: read-out: Binding affinity (Inhibition rate % at 10 μM) 5HT2a
T1 construct: purchased Euroscreen/BioSignal Packard Inc
Protocol: (§1) Radioligand bindings were performed according to the test method provided by the supplier of receptor membrane (Euroscreen/BioSignal Packard Inc.).

5-HT2c = target: T2, 5-HT2c (Homo sapiens, UniProt P28335); assay: Radioligand binding, 5-HT2c ([3H]Mesulergine); settings: read-out: Binding affinity (Inhibition rate % at 10 μM) 5HT2c
T2 construct: purchased Euroscreen/BioSignal Packard Inc
T2 sequence (P28335 33-458): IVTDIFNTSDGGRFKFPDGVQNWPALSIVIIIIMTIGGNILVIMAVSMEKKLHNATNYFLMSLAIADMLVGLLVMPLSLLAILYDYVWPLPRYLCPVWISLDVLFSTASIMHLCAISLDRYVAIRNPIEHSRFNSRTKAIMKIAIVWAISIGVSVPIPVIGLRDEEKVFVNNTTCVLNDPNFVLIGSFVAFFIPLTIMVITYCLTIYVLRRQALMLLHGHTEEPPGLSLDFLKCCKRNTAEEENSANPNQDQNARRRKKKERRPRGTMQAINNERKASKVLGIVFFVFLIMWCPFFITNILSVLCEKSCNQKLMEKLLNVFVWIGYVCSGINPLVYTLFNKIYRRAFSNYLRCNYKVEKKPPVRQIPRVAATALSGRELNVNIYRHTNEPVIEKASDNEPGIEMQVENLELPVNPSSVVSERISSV
Protocol: as §1

hD4.2 receptor = target: T3, hD4.2 receptor (Homo sapiens, UniProt P21917, DEL265-296); assay: Radioligand binding, dopamine D4 ([3H]YM-09151-2); settings: read-out: Binding affinity (Inhibition rate % at 10 μM) D4
T3 construct: purchased BioSignal Packard Inc., Montreal, Canada
T3 sequence (P21917 with tags, fused parts or gaps DEL265-296): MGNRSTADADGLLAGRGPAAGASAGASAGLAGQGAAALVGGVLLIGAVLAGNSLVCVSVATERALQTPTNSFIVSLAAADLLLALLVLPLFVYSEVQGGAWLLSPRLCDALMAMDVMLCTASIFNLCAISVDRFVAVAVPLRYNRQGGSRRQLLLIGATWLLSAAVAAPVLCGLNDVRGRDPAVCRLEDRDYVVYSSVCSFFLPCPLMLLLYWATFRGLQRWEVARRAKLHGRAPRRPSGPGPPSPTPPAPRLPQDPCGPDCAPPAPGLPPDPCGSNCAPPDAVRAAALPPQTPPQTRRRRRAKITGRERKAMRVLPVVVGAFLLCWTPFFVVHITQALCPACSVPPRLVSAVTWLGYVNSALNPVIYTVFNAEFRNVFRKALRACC

5-HT1a = target: T4, 5-HT1a (Homo sapiens, UniProt P08908); assay: Radioligand binding, 5-HT1a ([3H]8-OH-DPAT); settings: read-out: Binding affinity (Inhibition rate % at 10 μM) 5HT1a
T4 construct: purchased Euroscreen/BioSignal Packard Inc
T4 sequence (P08908 1-422): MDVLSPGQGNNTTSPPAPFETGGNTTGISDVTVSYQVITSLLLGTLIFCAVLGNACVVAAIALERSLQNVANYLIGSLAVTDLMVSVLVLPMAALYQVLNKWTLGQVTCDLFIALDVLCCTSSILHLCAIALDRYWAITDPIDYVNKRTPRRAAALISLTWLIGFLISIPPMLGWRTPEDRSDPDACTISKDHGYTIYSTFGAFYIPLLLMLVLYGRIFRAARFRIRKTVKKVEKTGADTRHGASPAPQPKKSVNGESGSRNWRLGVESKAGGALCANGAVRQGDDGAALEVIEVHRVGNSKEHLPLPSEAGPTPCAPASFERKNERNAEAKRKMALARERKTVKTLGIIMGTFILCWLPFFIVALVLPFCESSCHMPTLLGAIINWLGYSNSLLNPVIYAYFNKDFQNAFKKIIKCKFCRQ
Protocol: as §1

hD2L receptor = target: T5, hD2L receptor (Homo sapiens, UniProt P14416); assay: Radioligand binding, dopamine D2 ([3H]spiperone); settings: read-out: Binding affinity (Inhibition rate % at 10 μM) D2
T5 construct: purchased BioSignal Packard Inc., Montreal, Canada
T5 sequence (P14416 whole entry): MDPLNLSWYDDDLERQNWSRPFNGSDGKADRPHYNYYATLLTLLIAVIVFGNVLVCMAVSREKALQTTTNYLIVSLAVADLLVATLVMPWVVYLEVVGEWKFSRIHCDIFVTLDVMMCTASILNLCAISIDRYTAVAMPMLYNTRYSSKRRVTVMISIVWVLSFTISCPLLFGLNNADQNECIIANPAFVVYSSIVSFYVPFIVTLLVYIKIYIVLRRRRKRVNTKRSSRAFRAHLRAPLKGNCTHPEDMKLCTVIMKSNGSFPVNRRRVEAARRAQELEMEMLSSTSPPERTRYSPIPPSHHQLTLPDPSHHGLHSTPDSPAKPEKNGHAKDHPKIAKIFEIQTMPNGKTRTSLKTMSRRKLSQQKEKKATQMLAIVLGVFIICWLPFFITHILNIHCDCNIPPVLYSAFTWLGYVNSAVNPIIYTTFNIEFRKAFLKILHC

D1 = D1 (Homo sapiens, UniProt P21728); assay: Radioligand binding for selectivity, D1; settings: read-out: Binding affinity (Inhibition rate % at 10 μM) D1
Sequence of D1 (P21728 whole entry): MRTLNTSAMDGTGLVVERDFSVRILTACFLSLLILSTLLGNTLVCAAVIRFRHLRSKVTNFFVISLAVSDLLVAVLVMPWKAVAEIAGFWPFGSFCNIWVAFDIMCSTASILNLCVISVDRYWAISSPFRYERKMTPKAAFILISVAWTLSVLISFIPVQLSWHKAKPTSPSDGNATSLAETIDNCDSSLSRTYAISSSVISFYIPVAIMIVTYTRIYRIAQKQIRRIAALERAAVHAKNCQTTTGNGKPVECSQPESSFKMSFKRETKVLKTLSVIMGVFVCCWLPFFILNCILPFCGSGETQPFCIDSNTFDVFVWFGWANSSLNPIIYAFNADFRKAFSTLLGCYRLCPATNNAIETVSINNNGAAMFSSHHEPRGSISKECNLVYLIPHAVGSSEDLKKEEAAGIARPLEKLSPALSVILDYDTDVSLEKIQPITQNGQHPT

hD3 receptor = target: T6, hD3 receptor (Homo sapiens, UniProt P35462); assay: Radioligand binding, dopamine D3 ([3H]spiperone); settings: read-out: Binding affinity (Inhibition rate % at 10 μM) D3
T6 construct: purchased BioSignal Packard Inc., Montreal, Canada
T6 sequence (P35462 whole entry): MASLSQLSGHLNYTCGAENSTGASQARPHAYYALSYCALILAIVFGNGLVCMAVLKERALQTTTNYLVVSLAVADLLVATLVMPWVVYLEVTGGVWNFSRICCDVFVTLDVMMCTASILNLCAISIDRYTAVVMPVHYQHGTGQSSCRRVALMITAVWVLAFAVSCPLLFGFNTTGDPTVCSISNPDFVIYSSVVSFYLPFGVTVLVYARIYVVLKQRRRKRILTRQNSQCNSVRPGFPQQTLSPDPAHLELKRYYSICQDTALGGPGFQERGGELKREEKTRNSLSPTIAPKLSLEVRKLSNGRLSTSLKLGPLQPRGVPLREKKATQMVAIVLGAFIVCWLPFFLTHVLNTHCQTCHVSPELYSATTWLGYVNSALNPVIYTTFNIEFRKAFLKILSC

[1] = target: T7, human serotonin 5-HT6 receptor (Homo sapiens, UniProt P50406); assay: [3H]LSD binding at cloned 5-HT6 receptors; settings: for inhibition at 10 µM: read-out: Binding affinity (Inhibition rate % at 10 μM) 5HT6
T7 construct: made in house; host or cells: Sf21 insect cells (pBacPAK8 baculovirus vector)
T7 sequence (P50406 whole entry): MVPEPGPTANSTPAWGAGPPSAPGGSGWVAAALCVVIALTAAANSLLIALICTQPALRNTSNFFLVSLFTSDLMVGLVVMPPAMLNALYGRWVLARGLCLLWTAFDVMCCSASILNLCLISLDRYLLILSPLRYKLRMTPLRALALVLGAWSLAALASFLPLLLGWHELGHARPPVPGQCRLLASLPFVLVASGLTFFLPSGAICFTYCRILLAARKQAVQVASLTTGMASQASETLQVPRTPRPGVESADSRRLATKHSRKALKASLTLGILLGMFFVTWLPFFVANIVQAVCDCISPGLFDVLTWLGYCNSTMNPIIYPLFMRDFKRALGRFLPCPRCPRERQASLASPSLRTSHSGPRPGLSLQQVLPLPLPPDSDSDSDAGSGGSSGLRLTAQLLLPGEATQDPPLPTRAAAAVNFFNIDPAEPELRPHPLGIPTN

5-HT7 = target: T8, 5-HT7 (Homo sapiens, UniProt P34969); assay: Radioligand binding, 5-HT7 ([3H]LSD); settings: read-out: Binding affinity (Inhibition rate % at 10 μM) 5HT7
T8 construct: purchased Euroscreen/BioSignal Packard Inc
T8 sequence (P34969 whole entry): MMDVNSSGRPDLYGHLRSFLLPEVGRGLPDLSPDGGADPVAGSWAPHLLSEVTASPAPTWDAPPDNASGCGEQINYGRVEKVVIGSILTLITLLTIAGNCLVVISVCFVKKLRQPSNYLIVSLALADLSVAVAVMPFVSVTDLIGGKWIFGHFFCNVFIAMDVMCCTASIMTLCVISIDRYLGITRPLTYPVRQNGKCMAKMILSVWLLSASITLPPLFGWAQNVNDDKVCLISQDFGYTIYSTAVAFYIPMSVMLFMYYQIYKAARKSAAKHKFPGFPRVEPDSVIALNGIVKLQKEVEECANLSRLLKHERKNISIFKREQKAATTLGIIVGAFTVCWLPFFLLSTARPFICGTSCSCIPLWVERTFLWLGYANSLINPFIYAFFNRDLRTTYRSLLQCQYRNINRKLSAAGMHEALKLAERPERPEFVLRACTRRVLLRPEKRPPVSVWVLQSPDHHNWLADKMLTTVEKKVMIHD
Protocol: as §1

[2] = [3H]LSD 1.87 nM, cloned receptor membranes, 37° C., 60 min, read-out: IC50

T1 sequence (P28223 whole entry): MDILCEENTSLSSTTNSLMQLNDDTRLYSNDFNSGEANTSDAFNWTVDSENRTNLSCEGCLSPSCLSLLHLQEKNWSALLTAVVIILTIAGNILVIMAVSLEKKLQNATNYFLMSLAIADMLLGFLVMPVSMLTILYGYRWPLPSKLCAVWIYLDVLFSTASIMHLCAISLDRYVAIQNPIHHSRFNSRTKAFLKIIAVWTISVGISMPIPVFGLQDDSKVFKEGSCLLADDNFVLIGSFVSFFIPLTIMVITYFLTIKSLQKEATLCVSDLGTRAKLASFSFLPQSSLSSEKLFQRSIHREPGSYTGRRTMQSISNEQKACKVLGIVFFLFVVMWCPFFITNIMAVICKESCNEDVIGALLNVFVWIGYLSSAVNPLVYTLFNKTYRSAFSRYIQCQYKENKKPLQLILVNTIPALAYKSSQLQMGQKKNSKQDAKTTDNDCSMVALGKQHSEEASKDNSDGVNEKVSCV

Row | Structure (SMILES) | inhibition at 10 µM (5-HT2a) [%] | inhibition at 10 µM (5-HT2c) [%] | inhibition at 10 µM (hD4.2 receptor) [%] | inhibition at 10 µM (5-HT1a) [%] | inhibition at 10 µM (hD2L receptor) [%] | inhibition at 10 µM (D1) [%] | inhibition at 10 µM (hD3 receptor) [%] | pIC50 [1, 2] | inhibition at 10 µM [1] [%] | melting point | inhibition at 10 µM (5-HT7) [%] | 5-HT6 affinity compared with known selective antagonists ([1]; in words) | pIC50 [1]
1 | CC1(c2cccc(OCc3ccccc3)c2)C(=O)Nc2cc(Cl)cc(Cl)c2C1=O (stereo not drawn) [Example 19, 3-(3-benzyloxy-phenyl)-5,7-dichloro-3-methyl-1H-quinoline-2,4-dione] | 67.3 | 0 | 0 | 88.8 | 37.8 | 92.6 | 37.4 | 6.87 | 74.9 | 201 to 203 °C | 69.5 | – | –
2 | CC1(c2cccc(O)c2)C(=O)Nc2cc(Cl)cc(Cl)c2C1=O (stereo not drawn) [Example 20, 3-(3-hydroxy-phenyl)-5,7-dichloro-3-methyl-1H-quinoline-2,4-dione] | 46.1 | 4.7 | 0 | 0 | 10.9 | 64.6 | 13.2 | 7.31 | 91.7 | 248 °C (dec.) | 29.2 | almost same affinities as or better affinities than known selective antagonists | –
3 | COc1ccc(C2(C)C(=O)Nc3cc(Cl)cc(Cl)c3C2=O)cc1[N+](=O)[O-] (stereo not drawn) [Example 21, 5,7-dichloro-3-(4-methoxy-3-nitro-phenyl)-3-methyl-1H-quinoline-2,4-dione] | 16.3 | 10.8 | 0 | 15.9 | 10.5 | 40.2 | 16.4 | 5.91 | 73.7 | 255 to 256 °C | 0 | – | –
4 | CC1(c2ccc(O)c([N+](=O)[O-])c2)C(=O)Nc2cc(Cl)cc(Cl)c2C1=O (stereo not drawn) [Example 22, 5,7-dichloro-3-(4-hydroxy-3-nitro-phenyl)-3-methyl-1H-quinoline-2,4-dione] | 50.9 | 2.5 | 0 | 68.7 | 11.2 | 35.7 | 34 | 6.00 | 72.5 | 239 to 240 °C | 36.3 | – | –
5 | CC1(c2ccc(OCc3ccccc3)c(Br)c2)C(=O)Nc2cc(Cl)cc(Cl)c2C1=O (stereo not drawn) [Example 23, 3-(4-benzyloxy-3-bromo-phenyl)-5,7-dichloro-3-methyl-1H-quinoline-2,4-dione] | 26.4 | 21.9 | 0.7 | 64.9 | 9.6 | 16.8 | 32.5 | 5.90 | 70.6 | 189 to 190 °C | 27.4 | – | –
6 | CC1(c2ccc(O)c(Br)c2)C(=O)Nc2cc(Cl)cc(Cl)c2C1=O (stereo not drawn) [Example 24, 3-(3-bromo-4-hydroxy-phenyl)-5,7-dichloro-3-methyl-1H-quinoline-2,4-dione] | 11.5 | 22.8 | 0 | 50.4 | 5 | 13 | 16.6 | 6.90 | 71 | 228 to 229 °C | 5.5 | – | –
7 | C[C@H](NC(=O)Oc1ccc(C2(C)C(=O)Nc3cc(Cl)cc(Cl)c3C2=O)cc1)c1ccccc1 (stereo partly drawn) [Example 25] | 16.7 | 4 | 0 | 35.9 | 8.4 | 54.1 | 10.2 | – | 69.8 | 110 to 115 °C | 30.6 | – | 6.09
